Tests used:
Format in all cases: biochemical
Details in all cases: Caliper assay at 1 mM ATP
JAK1 = JAK1 (Homo sapiens (Human), UniProt P23458); test: JAK Caliper Enzyme Assay at 1 mM ATP (JAK1)
Procedure: (§1) JAK Caliper Enzyme Assay at 1 mM ATP
(§2) Test article was solubilized in dimethyl sulfoxide (DMSO) to a stock concentration of 30 mM. An 11-point half log dilution series was created in DMSO with a top concentration of 600 μM. […] The compound plates were diluted 1 to 60 resulting in a top final assay compound concentration of 10 μM and a 2% DMSO concentration.
(§3) Test article and assay controls were added to a 384-well plate. Reaction mixtures contained 20 mM HEPES, pH 7.4, 10 mM magnesium chloride, 0.01% bovine serum albumin (BSA), 0.0005% Tween 20, 1 mM ATP and 1 μM peptide substrate. […] Enzyme concentrations and incubation times were optimized for each new enzyme preps and were modified slightly over time to ensure 20%-30% phosphorylation. The assays were stopped with a final concentration of 10 mM EDTA, 0.1% Coating Reagent and 100 mM HEPES, pH=7.4. The assay plates were placed on a Caliper Life Science Lab Chip 3000 (LC3000) instrument, and each well was sampled using appropriate separation conditions to measure the unphosphorylated and phosphorylated peptide.

JAK3 = JAK3 (Homo sapiens (Human), UniProt P52333); test: JAK Caliper Enzyme Assay at 1 mM ATP (JAK3)
JAK3, sequence (P52333 whole entry, species assumed): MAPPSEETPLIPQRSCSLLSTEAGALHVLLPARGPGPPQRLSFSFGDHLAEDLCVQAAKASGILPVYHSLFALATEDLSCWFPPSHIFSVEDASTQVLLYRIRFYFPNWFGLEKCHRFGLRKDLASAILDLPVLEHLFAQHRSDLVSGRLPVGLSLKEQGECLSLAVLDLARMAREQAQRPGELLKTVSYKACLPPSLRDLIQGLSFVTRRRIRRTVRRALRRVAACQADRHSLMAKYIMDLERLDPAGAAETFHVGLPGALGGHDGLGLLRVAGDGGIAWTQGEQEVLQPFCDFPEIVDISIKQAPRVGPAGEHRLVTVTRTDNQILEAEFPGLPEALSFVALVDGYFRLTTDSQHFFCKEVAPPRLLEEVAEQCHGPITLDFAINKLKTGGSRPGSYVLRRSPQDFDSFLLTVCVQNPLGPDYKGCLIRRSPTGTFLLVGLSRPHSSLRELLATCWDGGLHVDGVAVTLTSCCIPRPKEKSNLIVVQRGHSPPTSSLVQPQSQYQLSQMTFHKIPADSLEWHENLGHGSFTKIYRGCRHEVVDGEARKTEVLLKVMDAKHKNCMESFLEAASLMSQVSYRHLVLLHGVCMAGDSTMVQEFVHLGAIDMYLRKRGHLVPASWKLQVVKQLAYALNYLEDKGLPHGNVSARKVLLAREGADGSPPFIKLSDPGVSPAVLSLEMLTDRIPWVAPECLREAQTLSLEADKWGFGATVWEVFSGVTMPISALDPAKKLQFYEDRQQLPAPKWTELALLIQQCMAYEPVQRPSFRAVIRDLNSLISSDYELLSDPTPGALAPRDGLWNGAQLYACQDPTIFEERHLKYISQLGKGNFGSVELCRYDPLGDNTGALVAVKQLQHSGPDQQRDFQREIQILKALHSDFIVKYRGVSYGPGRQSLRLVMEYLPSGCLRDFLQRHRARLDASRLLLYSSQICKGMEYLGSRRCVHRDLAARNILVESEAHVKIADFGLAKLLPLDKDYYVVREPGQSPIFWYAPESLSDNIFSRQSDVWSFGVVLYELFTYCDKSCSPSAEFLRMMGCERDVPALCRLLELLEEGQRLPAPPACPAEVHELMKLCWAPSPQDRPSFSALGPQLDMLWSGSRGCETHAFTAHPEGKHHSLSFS
Procedure: as §1, §2, §3

TYK2 = TYK2 (Homo sapiens (Human), UniProt P29597); test: JAK Caliper Enzyme Assay at 1 mM ATP (TYK2)
TYK2, sequence (P29597 whole entry, species assumed): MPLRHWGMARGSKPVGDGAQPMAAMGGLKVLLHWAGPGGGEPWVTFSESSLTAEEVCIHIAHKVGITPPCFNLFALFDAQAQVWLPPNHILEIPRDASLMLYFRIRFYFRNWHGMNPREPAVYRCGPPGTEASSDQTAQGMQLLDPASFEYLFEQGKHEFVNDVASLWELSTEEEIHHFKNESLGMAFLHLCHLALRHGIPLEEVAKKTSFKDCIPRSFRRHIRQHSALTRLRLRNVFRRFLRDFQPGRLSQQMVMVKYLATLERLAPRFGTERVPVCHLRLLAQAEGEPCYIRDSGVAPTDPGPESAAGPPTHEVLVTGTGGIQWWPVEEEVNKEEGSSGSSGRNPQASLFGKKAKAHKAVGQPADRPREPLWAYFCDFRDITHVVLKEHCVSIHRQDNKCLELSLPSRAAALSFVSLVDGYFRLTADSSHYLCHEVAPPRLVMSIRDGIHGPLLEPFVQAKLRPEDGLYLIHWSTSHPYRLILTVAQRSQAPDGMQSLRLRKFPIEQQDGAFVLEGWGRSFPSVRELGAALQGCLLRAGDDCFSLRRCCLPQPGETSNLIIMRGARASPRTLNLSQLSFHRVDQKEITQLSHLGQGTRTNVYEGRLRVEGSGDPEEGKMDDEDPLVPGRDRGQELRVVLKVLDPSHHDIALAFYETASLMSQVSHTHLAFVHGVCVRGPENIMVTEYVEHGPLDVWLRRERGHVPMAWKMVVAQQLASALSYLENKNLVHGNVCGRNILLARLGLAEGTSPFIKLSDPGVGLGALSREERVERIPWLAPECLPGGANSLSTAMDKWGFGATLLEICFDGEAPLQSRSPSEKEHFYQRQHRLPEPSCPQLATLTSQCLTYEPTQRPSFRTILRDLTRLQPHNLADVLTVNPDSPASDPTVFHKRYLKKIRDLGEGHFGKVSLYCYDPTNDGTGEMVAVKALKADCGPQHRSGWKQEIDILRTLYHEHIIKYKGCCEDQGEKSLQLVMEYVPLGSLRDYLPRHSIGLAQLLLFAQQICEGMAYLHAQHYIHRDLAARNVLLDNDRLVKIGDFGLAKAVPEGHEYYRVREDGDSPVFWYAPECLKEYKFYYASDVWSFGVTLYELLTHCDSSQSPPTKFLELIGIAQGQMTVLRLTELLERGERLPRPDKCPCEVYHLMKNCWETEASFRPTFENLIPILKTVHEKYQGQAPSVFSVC
Procedure: as §1, §2, §3

JAK2 = JAK2 (Homo sapiens (Human), UniProt O60674); test: JAK Caliper Enzyme Assay at 1 mM ATP (JAK2)
JAK2, sequence (O60674 whole entry, species assumed): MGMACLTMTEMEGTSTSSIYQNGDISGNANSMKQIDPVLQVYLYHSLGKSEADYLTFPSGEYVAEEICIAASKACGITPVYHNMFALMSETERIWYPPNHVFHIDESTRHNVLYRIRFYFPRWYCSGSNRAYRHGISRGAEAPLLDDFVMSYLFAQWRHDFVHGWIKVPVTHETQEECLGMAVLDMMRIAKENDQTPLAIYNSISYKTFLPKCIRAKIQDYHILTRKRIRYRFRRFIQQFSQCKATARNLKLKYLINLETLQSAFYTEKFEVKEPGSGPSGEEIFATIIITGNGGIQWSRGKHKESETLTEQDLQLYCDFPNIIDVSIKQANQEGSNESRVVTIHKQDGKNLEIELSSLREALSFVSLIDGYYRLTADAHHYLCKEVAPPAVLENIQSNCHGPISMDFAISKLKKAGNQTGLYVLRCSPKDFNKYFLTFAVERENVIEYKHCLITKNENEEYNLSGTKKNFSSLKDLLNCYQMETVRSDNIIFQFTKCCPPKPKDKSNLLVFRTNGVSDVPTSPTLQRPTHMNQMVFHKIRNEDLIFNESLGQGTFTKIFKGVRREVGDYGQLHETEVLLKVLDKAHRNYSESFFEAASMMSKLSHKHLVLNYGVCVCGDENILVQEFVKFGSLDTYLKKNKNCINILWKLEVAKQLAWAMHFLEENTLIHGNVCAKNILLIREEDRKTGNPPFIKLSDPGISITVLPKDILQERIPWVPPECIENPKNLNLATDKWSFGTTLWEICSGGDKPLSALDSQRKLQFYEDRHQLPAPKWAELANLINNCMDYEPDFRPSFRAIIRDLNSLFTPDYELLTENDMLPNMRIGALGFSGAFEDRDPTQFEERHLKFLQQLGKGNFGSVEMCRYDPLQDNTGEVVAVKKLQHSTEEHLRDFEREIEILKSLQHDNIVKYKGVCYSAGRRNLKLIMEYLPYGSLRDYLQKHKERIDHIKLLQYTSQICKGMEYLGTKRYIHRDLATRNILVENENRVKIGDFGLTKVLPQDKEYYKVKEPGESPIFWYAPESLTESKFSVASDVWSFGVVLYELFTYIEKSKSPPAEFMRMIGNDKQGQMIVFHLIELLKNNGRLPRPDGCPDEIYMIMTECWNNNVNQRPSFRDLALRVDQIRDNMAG
Procedure: as §1, §2, §3

JAK1, sequence (P23458 whole entry, species assumed): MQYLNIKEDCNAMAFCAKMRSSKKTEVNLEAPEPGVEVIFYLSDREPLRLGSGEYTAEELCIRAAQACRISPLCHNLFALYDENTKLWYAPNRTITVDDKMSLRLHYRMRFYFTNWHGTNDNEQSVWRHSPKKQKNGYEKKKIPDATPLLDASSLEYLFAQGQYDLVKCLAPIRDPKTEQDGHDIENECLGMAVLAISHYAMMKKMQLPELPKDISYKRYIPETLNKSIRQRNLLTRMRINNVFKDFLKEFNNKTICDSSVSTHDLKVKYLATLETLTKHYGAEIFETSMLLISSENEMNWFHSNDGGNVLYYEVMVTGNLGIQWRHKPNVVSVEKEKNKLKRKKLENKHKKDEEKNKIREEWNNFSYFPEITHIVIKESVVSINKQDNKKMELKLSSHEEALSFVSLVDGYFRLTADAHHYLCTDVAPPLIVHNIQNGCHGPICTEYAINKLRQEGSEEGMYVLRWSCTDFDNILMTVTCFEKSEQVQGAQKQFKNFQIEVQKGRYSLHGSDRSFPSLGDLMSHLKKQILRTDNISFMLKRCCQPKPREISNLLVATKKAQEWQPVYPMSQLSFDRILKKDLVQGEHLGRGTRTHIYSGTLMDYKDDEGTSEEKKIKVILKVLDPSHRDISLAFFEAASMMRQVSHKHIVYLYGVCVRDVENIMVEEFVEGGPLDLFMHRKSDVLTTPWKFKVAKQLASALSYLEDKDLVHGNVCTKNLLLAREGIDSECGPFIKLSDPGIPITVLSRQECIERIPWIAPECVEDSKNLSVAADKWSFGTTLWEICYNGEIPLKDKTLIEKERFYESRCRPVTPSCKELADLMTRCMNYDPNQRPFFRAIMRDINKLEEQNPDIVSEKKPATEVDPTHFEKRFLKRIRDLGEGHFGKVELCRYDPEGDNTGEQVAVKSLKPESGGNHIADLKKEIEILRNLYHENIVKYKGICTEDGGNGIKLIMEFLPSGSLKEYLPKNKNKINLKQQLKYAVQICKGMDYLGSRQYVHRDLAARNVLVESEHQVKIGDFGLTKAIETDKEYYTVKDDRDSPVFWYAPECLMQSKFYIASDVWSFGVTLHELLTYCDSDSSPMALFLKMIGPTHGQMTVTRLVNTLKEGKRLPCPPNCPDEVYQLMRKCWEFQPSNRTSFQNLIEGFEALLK

| SMILES | IC50 (JAK1) | IC50 (JAK3) | IC50 (TYK2) | IC50 (JAK2) |
| --- | --- | --- | --- | --- |
| CNC(=O)c1n[nH]c2cc(-c3cc(F)c(O)cc3CC(F)(F)F)nc(NCC(C)C)c12 [Example 16, 6-[5-fluoro-4-hydroxy-2-(2,2,2-trifluoroethyl)phenyl]-N-methyl-4-[(2-methylpropyl)amino]-1H-pyrazolo[4,3-c]pyridine-3-carboxamide] | 6.3 nM | 131 nM | 66 nM | 23 nM |
| CNC(=O)c1n[nH]c2cc(-c3cc(F)c(O)cc3CC(F)(F)F)nc(NCC3CCCC3)c12 [Example 17, 4-[(cyclopentylmethyl)-amino]-6-[5-fluoro-4-hydroxy-2-(2,2,2-trifluoro-ethyl)phenyl]-N-methyl-1H-pyrazolo[4,3-c]pyridine-3-carboxamide] | 18.5 nM | 256 nM | 142 nM | 52.9 nM |
| CNC(=O)c1n[nH]c2cc(-c3cc(F)c(O)cc3CC(F)(F)F)nc(NCc3ccccc3N(C)S(=O)(=O)c3cccc(O)c3)c12 [Example 32, 6-[5-Fluoro-4-hydroxy-2-(2,2,2-trifluoroethyl)phenyl]-4-[(2-{[(3-hydroxyphenyl)sulfonyl](methyl)amino}benzyl)amino]-N-methyl-1H-pyrazolo[4,3-c]pyridine-3-carboxamide] | 60.4 nM | 839 nM | 373 nM | 277 nM |
| CCN(c1ccc(O)cc1CNc1nc(-c2cc(F)c(O)cc2CC(F)(F)F)cc2[nH]nc(C(=O)NC)c12)S(C)(=O)=O [Example 34, 4-({2-[ethyl(methyl-sulfonyl)amino]-5-hydroxybenzyl}amino)-6-[5-fluoro-4-hydroxy-2-(2,2,2-trifluoroethyl)phenyl]-N-methyl-1H-pyrazolo[4,3-c]pyridine-3-carboxamide] | 5.1 nM | 98.4 nM | 24.6 nM | 27.8 nM |
| CCN(c1ccc(O)cc1CNc1nc(-c2cc(F)c(O)cc2CC(F)(F)F)cc2[nH]nc(C(=O)NC)c12)S(=O)(=O)c1ccccc1 [Example 36, 4-({2-[ethyl(phenyl-sulfonyl)amino]-5-hydroxybenzyl}amino)-6-[5-fluoro-4-hydroxy-2-(2,2,2-trifluoroethyl)phenyl]-N-methyl-1H-pyrazolo[4,3-c]pyridine-3-carboxamide] | 75 nM | 1230 nM | 364 nM | 401 nM |
| CCc1cc(O)c(F)cc1-c1cc2[nH]nc(C(N)=O)c2c(NCc2ccccc2N(C)S(=O)(=O)c2ccccc2)n1 [Example 40, 6-(2-Ethyl-5-fluoro-4-hydroxyphenyl)-4-({2-[methyl(phenylsulfonyl)amino]benzyl}amino)-1H-pyrazolo[4,3-c]pyridine-3-carboxamide] | 4.6 nM | 130 nM | 18.1 nM | 23.1 nM |
| CCN(c1ccc(O)cc1CNc1nc(-c2cc(F)c(O)cc2CC(F)(F)F)cc2[nH]nc(C(N)=O)c12)S(=O)(=O)c1ccccc1 [Example 43, 4-({2-[ethyl(phenyl-sulfonyl)amino]-5-hydroxybenzyl}amino)-6-[5-fluoro-4-hydroxy-2-(2,2,2-trifluoroethyl)-phenyl]-1H-pyrazolo[4,3-c]pyridine-3-carboxamide] | 55.1 nM | 1070 nM | 439 nM | 302 nM |
| CCN(c1nccnc1CNc1nc(-c2cc(F)c(O)cc2CC(F)(F)F)cc2[nH]nc(C(=O)NC)c12)S(C)(=O)=O [Example 45, 4-[({3-[ethyl(methyl-sulfonyl)-amino]pyrazin-2-yl}methyl)amino]-6-[5-fluoro-4-hydroxy-2-(2,2,2-trifluoroethyl)phenyl]-N-methyl-1H-pyrazolo[4,3-c]pyridine-3-carboxamide] | 4 nM | 68.7 nM | 148 nM | 18.9 nM |

Results, then the compound that gave them:

| IC50 (JAK1) | IC50 (JAK3) | IC50 (TYK2) | IC50 (JAK2) | SMILES |
| --- | --- | --- | --- | --- |
| 8.7 nM | 207 nM | 229 nM | 36.9 nM | CNC(=O)c1n[nH]c2cc(-c3cc(F)c(O)cc3CC(F)(F)F)nc(NCc3cc(C)ccc3N(C)S(C)(=O)=O)c12 [Example 11, 6-[5-fluoro-4-hydroxy-2-(2,2,2-trifluoroethyl)phenyl]-N-methyl-4-({5-methyl-2-[methyl(methyl-sulfonyl)amino]benzyl}amino)-1H-pyrazolo[4,3-c]pyridine-3-carboxamide] |
| 13.6 nM | 342 nM | 618 nM | 55 nM | CNC(=O)c1n[nH]c2cc(-c3cc(F)c(O)cc3CC(F)(F)F)nc(NCc3cc(Cl)ccc3N(C)S(C)(=O)=O)c12 [Example 15, 4-({5-chloro-2-[methyl(methyl-sulfonyl)amino]benzyl}amino)-6-[5-fluoro-4-hydroxy-2-(2,2,2-trifluoroethyl)phenyl]-N-methyl-1H-pyrazolo[4,3-c]pyridine-3-carboxamide] |
| 0.9 nM | 30.9 nM | 4.8 nM | 5.9 nM | CCc1cc(O)c(F)cc1-c1cc2[nH]nc(C(=O)NC)c2c(NCc2ccccc2N(C)S(C)(=O)=O)n1 [Example 19, 6-(2-ethyl-5-fluoro-4-hydroxy-phenyl)-N-methyl-4-({2-[methyl(methyl-sulfonyl)amino]benzyl}amino)-1H-pyrazolo[4,3-c]pyridine-3-carboxamide] |
| 1 nM | 23.3 nM | 29 nM | 5.8 nM | CCc1cc(O)c(F)cc1-c1cc2[nH]nc(C(N)=O)c2c(NCc2ccc(O)cc2N(C)S(C)(=O)=O)n1 [Example 30, 6-(2-Ethyl-5-fluoro-4-hydroxyphenyl)-4-({4-hydroxy-2-[methyl(methylsulfonyl)amino]benzyl}amino)-1H-pyrazolo[4,3-c]pyridine-3-carboxamide] |
| 1.3 nM | 33 nM | 4.6 nM | 7 nM | CCc1cc(O)c(F)cc1-c1cc2[nH]nc(C(=O)NC)c2c(NCc2cc(O)ccc2N(C)S(C)(=O)=O)n1 [Example 31, 6-(2-Ethyl-5-fluoro-4-hydroxyphenyl)-4-({5-hydroxy-2-[methyl(methylsulfonyl)amino]benzyl}amino)-N-methyl-1H-pyrazolo[4,3-c]pyridine-3-carboxamide] |
| 4 nM | 122 nM | 17.8 nM | 25 nM | CCc1cc(O)c(F)cc1-c1cc2[nH]nc(C(=O)NC)c2c(N[C@H](C)c2ccccc2N(C)S(C)(=O)=O)n1 [Example 38, 6-(2-Ethyl-5-fluoro-4-hydroxyphenyl)-N-methyl-4-{[(1R)-1-{2-[methyl(methylsulfonyl)amino]phenyl}ethyl]amino}-1H-pyrazolo[4,3-c]pyridine-3-carboxamide] |
| 32.3 nM | 278 nM | 320 nM | 48.2 nM | CCc1cc(O)c(F)cc1-c1cc2[nH]nc(C(=O)NC)c2c(N[C@@H](C)c2ccccc2N(C)S(C)(=O)=O)n1 [Example 39, 6-(2-Ethyl-5-fluoro-4-hydroxyphenyl)-N-methyl-4-{[(1S)-1-{2-[methyl(methylsulfonyl)amino]phenyl}ethyl]amino}-1H-pyrazolo[4,3-c]pyridine-3-carboxamide] |
| 10.6 nM | 54.3 nM | 320 nM | 28.4 nM | CN(c1ccccc1CNc1nc(-c2cc(F)c(O)cc2C2CC2)cc2[nH]nc(C(N)=O)c12)S(C)(=O)=O [Example 47, 6-(2-cyclopropyl-5-fluoro-4-hydroxyphenyl)-4-({2-[methyl(methylsulfonyl)amino]benzyl}amino)-1H-pyrazolo[4,3-c]pyridine-3-carboxamide] |

Source: US9518052B2, “Pyrazolopyridines and pyrazolopyrimidines” (Pfizer Inc., priority 2014, dated 2016)
